{
  "source": "patent US20150057266A1",
  "about": "(AbbVie Inc., priority 2005, published 2015)",
  "assay": "intrinsic solubility (aqueous medium/lower pH)",
  "assay_type": "physicochemical",
  "data": [
    {"smiles": "Cc1cccc(Nc2ccccc2C(=O)O)c1C", "note": "[mefanamic acid]", "values": [
      {"measurement": "intrinsic solubility", "value": 0.0423, "unit": "µg/mL"}
    ]}
  ]
}
